In the NIST ThermoML archive (doi:10.1016/j.jct.2006.08.008):

Key:
[1] = mn = molality of the nth substance listed, in mol/kg; details: 350 kPa, Liquid
[2] = molar heat capacity at constant pressure; mn = molality of the nth substance listed, in mol/kg; details: 350 kPa, Liquid

N[C@@H](CCC(=O)O)C(=O)O [L-glutamic acid] + O
Details | mass density, m1 = 0.00249 [kg/m3] | mass density, m1 = 0.005 [kg/m3] | mass density, m1 = 0.00999 [kg/m3] | mass density, m1 = 0.01497 [kg/m3] | mass density, m1 = 0.02005 [kg/m3] | molar heat capacity at constant pressure, m1 = 0.00249 [J/K/mol] | molar heat capacity at constant pressure, m1 = 0.005 [J/K/mol] | molar heat capacity at constant pressure, m1 = 0.00999 [J/K/mol] | molar heat capacity at constant pressure, m1 = 0.01497 [J/K/mol] | molar heat capacity at constant pressure, m1 = 0.02005 [J/K/mol]
[1], 278.15 K | 1000.19 | 1000.25 | 1001.06 | 1000.93 | 1001.36 | – | – | – | – | –
[1], 283.15 K | 999.98 | 999.98 | 1000.74 | 1000.64 | 1001.07 | – | – | – | – | –
[1], 288.15 K | 999.38 | 999.38 | 1000.11 | 1000.03 | 1000.44 | – | – | – | – | –
[1], 298.15 K | 997.3 | 997.33 | 998.03 | 997.95 | 998.34 | – | – | – | – | –
[1], 308.15 K | 994.32 | 994.31 | 994.97 | 994.92 | 995.33 | – | – | – | – | –
[1], 318.15 K | 990.49 | 990.5 | 991.14 | 991.09 | 991.48 | – | – | – | – | –
[1], 328.15 K | 985.92 | 985.99 | 986.59 | 986.57 | 986.97 | – | – | – | – | –
[1], 338.15 K | 980.82 | 980.87 | 981.45 | 981.46 | 981.84 | – | – | – | – | –
[1], 348.15 K | 975.1 | 975.18 | 975.74 | 975.74 | 976.12 | – | – | – | – | –
[1], 358.15 K | 968.87 | 968.96 | 969.5 | 969.51 | 969.88 | – | – | – | – | –
[1], 368.15 K | 962.18 | 962.24 | 962.76 | 962.76 | 963.12 | – | – | – | – | –
[2], 278.15 K | – | – | – | – | – | 75.67 | 75.7 | 75.73 | 75.73 | 75.74
[2], 283.15 K | – | – | – | – | – | 75.5 | 75.53 | 75.55 | 75.56 | 75.57
[2], 288.15 K | – | – | – | – | – | 75.39 | 75.41 | 75.44 | 75.45 | 75.46
[2], 293.15 K | – | – | – | – | – | 75.32 | 75.34 | 75.36 | 75.38 | 75.38
[2], 298.15 K | – | – | – | – | – | 75.27 | 75.29 | 75.31 | 75.33 | 75.33
[2], 303.15 K | – | – | – | – | – | 75.24 | 75.27 | 75.28 | 75.3 | 75.3
[2], 308.15 K | – | – | – | – | – | 75.23 | 75.25 | 75.27 | 75.29 | 75.29
[2], 313.15 K | – | – | – | – | – | 75.23 | 75.25 | 75.27 | 75.28 | 75.29
[2], 318.15 K | – | – | – | – | – | 75.24 | 75.27 | 75.28 | 75.3 | 75.31
[2], 323.15 K | – | – | – | – | – | 75.27 | 75.29 | 75.3 | 75.32 | 75.33
[2], 328.15 K | – | – | – | – | – | 75.3 | 75.32 | 75.34 | 75.35 | 75.36
[2], 333.15 K | – | – | – | – | – | 75.34 | 75.36 | 75.38 | 75.39 | 75.4
[2], 338.15 K | – | – | – | – | – | 75.39 | 75.41 | 75.43 | 75.44 | 75.45
[2], 343.15 K | – | – | – | – | – | 75.45 | 75.47 | 75.48 | 75.5 | 75.51
[2], 348.15 K | – | – | – | – | – | 75.51 | 75.54 | 75.55 | 75.57 | 75.58
[2], 353.15 K | – | – | – | – | – | 75.58 | 75.61 | 75.62 | 75.64 | 75.65
[2], 358.15 K | – | – | – | – | – | 75.66 | 75.69 | 75.7 | 75.72 | 75.73
[2], 363.15 K | – | – | – | – | – | 75.75 | 75.78 | 75.79 | 75.81 | 75.82
[2], 368.15 K | – | – | – | – | – | 75.85 | 75.87 | 75.88 | 75.91 | 75.91
[2], 373.15 K | – | – | – | – | – | 75.95 | 75.98 | 75.99 | 76.01 | 76.02
[2], 378.15 K | – | – | – | – | – | 76.06 | 76.09 | 76.1 | 76.13 | 76.13
[2], 383.15 K | – | – | – | – | – | 76.18 | 76.21 | 76.22 | 76.25 | 76.25
[2], 388.15 K | – | – | – | – | – | 76.32 | 76.34 | 76.35 | 76.38 | 76.38
[2], 393.15 K | – | – | – | – | – | 76.46 | 76.48 | 76.49 | 76.53 | 76.51
